For 72 compounds, cytotoxicity results are on record in ChEMBL document CHEMBL3507680, “University of Dundee, Gates Library screen for HepG2 cell viability”.

The series can be described thus: Human HepG2 cell viability assay in 384 well format. The class given is toxicity, cell-based. Details: dose 125 nL, time 70.5 hour; concentration not given beside the values. As to conditions: HepG2 cells, read-out: Inhibition.
Turning to `Cc1cc(CN2CCC(CNS(=O)(=O)c3ccccc3Cl)CC2)c(C)o1`, the cytotoxicity at 70.5 h was -10.4%.
The same measure for `CS(=O)(=O)NCC1CCN(C(=O)Oc2ccccc2)CC1`: -3.79%.
`COc1ccc(S(=O)(=O)NCCCc2ccc(N(C)C)cc2)cc1F`: the cytotoxicity at 70.5 h was -1.57%.
Turning to `CCOc1ccc(S(=O)(=O)NCCCc2ccc(N(C)C)cc2)cc1F`, the cytotoxicity at 70.5 h is 0.733%.
With `CCOCC(=O)NCC1CCN(Cc2ccsc2)CC1`, the cytotoxicity at 70.5 h amounted to 1.54%.
The same measure for `CCn1nccc1C(=O)Nc1nc(C)c(C(C)=O)s1`: -5.2%.
The same measure for `Cc1nnc2ccc(OCCNS(=O)(=O)c3cccs3)nn12`: -9.99%.
The same measure for `Cc1ccc(C)c(S(=O)(=O)NCCOc2ccc3nnc(C)n3n2)c1`: 42.7%.
`CC(=O)Nc1ccc(SCC(=O)NCC2CCCO2)nn1` (configuration not stated): the cytotoxicity at 70.5 h was -2.02%.
The value for `COc1cccc(OC)c1C(=O)NCC(c1cccn1C)N1CCCC1` (configuration not stated) was -5.44%; that for `Cn1cccc1C(CNC(=O)COc1ccc(Cl)cc1Cl)N1CCCC1` (configuration not stated) was -16.7%; that for `COc1ccc(C(=O)NCC(c2cccn2C)N2CCN(C)CC2)cc1` (configuration not stated) was -4.93%.
As to `COc1ccc(S(=O)(=O)NCC(c2cccn2C)N(C)C)c(C)c1` (configuration not stated), the cytotoxicity at 70.5 h is -12.6%.
`Cc1nnc(C2CCN(C(=O)c3ccsc3)CC2)s1`: the cytotoxicity at 70.5 h was -5.71%.
The value for `CCC(CC)C(=O)NS(=O)(=O)c1ccc(C#N)cc1C(F)(F)F` was -0.398%; that for `CC(C)CC(=O)NS(=O)(=O)c1ccc(C#N)cc1C(F)(F)F` was -3.13%.
For `COc1ccc(Cl)cc1NCC(=O)NCc1cccnc1OC`, the cytotoxicity at 70.5 h was 17.6%.
The value for `Cn1cnc(S(=O)(=O)NCCN2CCCCCC2)c1Cl` was 4.34%; that for `CCC(C)C(=O)NS(=O)(=O)c1ccc(C#N)cc1C(F)(F)F` (configuration not stated) was -3.39%.
Regarding `COc1ccnc(N2CCN(C(=O)c3ccn(C)c(=O)c3)CC2)n1`, the cytotoxicity at 70.5 h was -1.1%.
Take `COc1cc(C)nc(N2CCN(C(=O)c3ccn(C)c(=O)c3)CC2)n1`: the cytotoxicity at 70.5 h was -0.122%.
For `Cc1nc(CN2CCC(N(C)Cc3nnc(C4CC4)n3C)C2)cs1` (configuration not stated), the cytotoxicity at 70.5 h is -1.39%.
As for `Cc1ccccc1CNC(=O)CN1CCCC(Cc2nccn2C)C1` (configuration not stated), the cytotoxicity at 70.5 h is -1.13%.
The value for `CCNC(=O)NC(=O)CNC(C)(C)c1ccc2c(c1)OCO2` was -4.4%.
`CCCNC(=O)NC(=O)CNC(C)(C)c1ccc2c(c1)OCCO2`: the cytotoxicity at 70.5 h was -2.49%.
The same measure for `Cc1ccc(N2CCCN(C(=O)CCC3CCCO3)CC2)nn1` (configuration not stated): 4.12%; for `COc1ccccc1N1CCC(CNCc2ccc(C#N)cc2)C1` (configuration not stated): 2.02%.
As for `Cc1cc(CN2CCC(N(C)Cc3nnc(C4CC4)n3C)C2)on1` (configuration not stated), the cytotoxicity at 70.5 h is -2.5%.
The value for `Cc1nn(C)c(Cl)c1C1CCCN1C(=O)c1ccc(O)nc1` (configuration not stated) was 23.1%.
The value for `CC1COCCN1Cc1nc(-c2cccc(C(F)(F)F)c2)no1` (configuration not stated) was -2.89%; that for `Cc1nn(C)c(N(C)C)c1CNCc1cccc(Cn2ccnc2)c1` was 3.64%; that for `O=C(CCc1nccs1)N1CCCC(n2cccn2)C1` (configuration not stated) was 1.23%.
Turning to `Cc1cnn(C2CCCN(C(=O)CCCc3ccccn3)C2)c1` (configuration not stated), the cytotoxicity at 70.5 h was -1.28%.
The same measure for `CC(C)n1cc(CN2CCCN(C(=O)CC3CCCO3)CC2)cn1` (configuration not stated): -4.54%.
Turning to `Cc1nc(C)n(CC2CCCN(Cc3cccnc3)C2)n1` (configuration not stated), the cytotoxicity at 70.5 h is -0.814%.
Take `CC(C(=O)Nc1ccc(N2CCCCC2)nc1)n1ccnc1` (configuration not stated): the cytotoxicity at 70.5 h was 25.5%.
For `COc1c(C2CCCN2C(=O)c2ccc3c(c2)OCO3)c(C)nn1C` (configuration not stated), the cytotoxicity at 70.5 h is -2.19%.
The same measure for `COc1c(CNCc2cccc(Cn3cncn3)c2)c(C)nn1C`: -0.463%.
The same measure for `Cc1nn(C)c(Cl)c1C1CCCN1C(=O)c1cccc(C#N)c1` (configuration not stated): 0.647%.
For `COc1cccc(-c2noc(CN3CCOCC3C)n2)c1` (configuration not stated), the cytotoxicity at 70.5 h was -2.13%.
In the case of `CC(C(=O)Nc1ccc(N2CCCCC2)nc1)n1cncn1` (configuration not stated), the cytotoxicity at 70.5 h was 26.7%.
The same measure for `O=C(NCC1CCCOC1)c1ccc(-c2ccccc2)[nH]c1=O` (configuration not stated): 0.0722%.
As to `Cc1cccc(-c2ccc(C(=O)NCC3CCCOC3)c(=O)[nH]2)c1` (configuration not stated), the cytotoxicity at 70.5 h is -9.36%.
The same measure for `O=C(NCC1CCOC1)c1ccc(-c2ccccc2)[nH]c1=O` (configuration not stated): -7.11%; for `Cc1cnn(C2CCCN(C(=O)CCc3c(C)noc3C)C2)c1` (configuration not stated): -2.08%; for `Cc1nn(CC(C)C)c(N(C)C)c1CNCc1ccccc1CO`: -0.0473%.
`Cc1nccn1CCCC(=O)N1CCCC(c2noc(C(C)C)n2)C1` (configuration not stated): the cytotoxicity at 70.5 h was -2.96%.
`CC(C)c1nc(C2CCCN(C(=O)CCn3cncn3)C2)no1` (configuration not stated): the cytotoxicity at 70.5 h was -2.58%.
The same measure for `Cc1nn(C)c(Cl)c1C1CCCN1C(=O)c1ccoc1C` (configuration not stated): -4.13%; for `Cc1nn(C)c(Cl)c1C1CCCN1C(=O)c1ccc2c(c1)COC2` (configuration not stated): -0.781%.
The same measure for `Cc1nc(CN2CCCC(c3cc(C(N)=O)[nH]n3)C2)oc1C` (configuration not stated): -1.85%; for `COc1ccccc1CNC(C)c1ccc2[nH]c(=O)[nH]c2c1` (configuration not stated): 1.17%; for `Cc1ccccc1C1(C(=O)NCCN2CCCC(C)C2)CCOCC1` (configuration not stated): 32.7%.
Take `Cc1ccccc1C1(C(=O)NCCN2CCCCC2C)CCOCC1` (configuration not stated): the cytotoxicity at 70.5 h is -6.68%.
The same measure for `Cc1ccccc1C1(C(=O)NCCN(C)C)CCOCC1`: -3.78%.
The value for `c1cc(-c2noc(CN3CCn4c(nnc4C4CC4)C3)n2)cs1` was -19.2%; that for `Cc1nc2n(n1)CC(NCc1cnn(-c3ccccc3)n1)CC2` (configuration not stated) was -9.59%; that for `COc1ccc(NC(=O)NCc2ccnc(N(C)C)c2)cn1` was 14.3%.
The same measure for `O=C(c1sccc1Br)N(Cc1cccnc1)C1CC1`: -13.1%; for `Cc1cnn(C2CCCN(C(=O)c3cccc(-n4cnnn4)c3)C2)c1` (configuration not stated): -3.6%.
As to `Cc1nnc2n1CCN(Cc1nc(-c3ccoc3)no1)C2`, the cytotoxicity at 70.5 h is 13.6%.
Regarding `CCC(=O)N1CCN(C(=O)NCCOc2ccc3c(c2)CCC3)CC1`, the cytotoxicity at 70.5 h is -8.5%.
On to `Cc1ccc(-c2nnc(CN3CCCC(Cn4cncn4)C3)o2)cc1` (configuration not stated), for which the cytotoxicity at 70.5 h is -1.97%.
The value for `c1ccc(-c2nnc(CN3CCCC(Cn4cncn4)C3)o2)cc1` (configuration not stated) was -7.29%.
For `O=C(O)c1cc(S(=O)(=O)N2CCOc3ccccc32)cc(Cl)c1Cl`, the cytotoxicity at 70.5 h is -9.63%.
The same measure for `O=C(O)c1ccc(F)c(S(=O)(=O)N2CCOc3ccccc32)c1`: -4.17%.
Take `Cc1cc(C)c(C(=O)N2CCOCC2c2c(C)n[nH]c2C)o1` (configuration not stated): the cytotoxicity at 70.5 h was -6.5%.
The value for `Cc1nccn1C1CCCN(C(=O)c2sccc2-n2cnnn2)C1` (configuration not stated) was -8.22%; that for `CC(NCc1c(C(C)C)nn(C)c1N1CCOCC1)C(=O)N(C)C` (configuration not stated) was 23%; that for `Cc1nn(C)c(N(C)C)c1CNCCS(C)(=O)=O` was 20.1%.
The same measure for `c1cnc(-c2nc(CNC3CCc4ncnn4C3)cs2)nc1` (configuration not stated): -6.68%; for `Cc1cc(C(=O)N2CCN(C)CC2)nn1CC(=O)NCc1cccs1`: -4.64%.
